# Source: ChEMBL document CHEMBL5634152, “The discovery of water-soluble indazole derivatives as potent microtubule polymerization inhibitors” (Eur J Med Chem, 2023)
# Activity calls are given as the source filed them. No cut-off for these calls is given here.
# Key:
# A549/TR = assay: Antiproliferative activity against human A549/Taxol cells assessed as cell growth inhibition incubated for72 hrs by MTT assay; format: functional, cell-based
# [1] = Resistance index, ratio of IC50 for human A549/Taxol cells to IC50 for human A549 cells; format: functional
# [2] = Aqueous solubility of compound in pH 7.4 at 10 mg/ml by HPLC analysis; format: physicochemical; details: buffer
# [3] = Lipophilicity, logP of compound in n-octanol-water at 5 mg/ml incubated for 8 hrs by HPLC analysis; format: physicochemical
# Sus scrofa = species on record: Sus scrofa; assay: Inhibition of pig brain tubulin polymerization by absorbance based assay; format: tissue-based; details: dose <= 6.0 µM
# [4] = Inhibition of pig brain tubulin polymerization measured after 20 mins by absorbance based assay; format: tissue-based, Sus scrofa
# Tubulin (Homo sapiens) [5] = molecular target: T1, Tubulin (Homo sapiens) (UniProt P68371+Q9H4B7+P0DPH7+P68366+Q13509+Q71U36+P04350+Q3ZCM7+P07437+P68363+Q9BQE3+Q6PEY2+Q13885+Q9BVA1+Q9BUF5); assay: Inhibition of tubulin polymerization in human A549 cells assessed as disruption of microtubule aggregation incubated for 24 hrs by immunofluorescence based analysis; format: cell-based; details: dose 12.5-25 nM
# Tubulin (Homo sapiens) [6] = molecular target: T1, Tubulin (Homo sapiens); assay: Inhibition of tubulin polymerization in human A549 cells assessed as decrease in spindle formation incubated for 24 hrs by immunofluorescence based analysis; format: cell-based; details: dose 12.5-25 nM
# Tubulin (Homo sapiens) [7] = molecular target: T1, Tubulin (Homo sapiens); assay: Binding affinity to tubulin polymerization in human A549 cells assessed as N,N'-ethylene- bis(iodoacetamide)/beta-tubulin adduct formation at 5 uM incubated for 2 hrs by chemiluminescence based assay; format: cell-based
# Tubulin (Homo sapiens) [8] = molecular target: T1, Tubulin (Homo sapiens); assay: Binding affinity to tubulin polymerization at colchicine-binding site in human A549 cells assessed as N,N'-ethylene- bis(iodoacetamide)/beta-tubulin adduct formation incubated for 2 hrs by chemiluminescence based assay; format: cell-based; details: dose 0.1-25 µM
# A549 [9] = assay: Induction of cell cycle arrest at G1 phase in human A549 cells at 12.5 nM incubated for 24 hrs by flow cytometry (reference value: 71.30 %); format: functional
# A549 [10] = assay: Induction of cell cycle arrest at S phase in human A549 cells at 12.5 nM incubated for 24 hrs by flow cytometry (reference value: 24.86 %); format: functional
# A549 [11] = assay: Induction of cell cycle arrest at G2/M phase in human A549 cells at 12.5 nM incubated for 24 hrs by flow cytometry (reference value: 3.84 %); format: functional
# A549 [12] = assay: Induction of cell cycle arrest at G1 phase in human A549 cells at 25 nM incubated for 24 hrs by flow cytometry (reference value: 71.30 %); format: functional
# A549 [13] = assay: Induction of cell cycle arrest at S phase in human A549 cells at 25 nM incubated for 24 hrs by flow cytometry (reference value: 24.86 %); format: functional
# A549 [14] = assay: Induction of cell cycle arrest at G2/M phase in human A549 cells at 25 nM incubated for 24 hrs by flow cytometry (reference value: 3.84 %); format: functional
# A549 [15] = assay: Induction of apoptosis in human A549 cells assessed as viable cells at 12.5 nM incubated for 24 hrs by Annexin V/7-Aad staining based flow cytometry (reference value: 93.63 %); format: functional; details: read-out: Activity
# A549 [16] = assay: Induction of apoptosis in human A549 cells assessed as early apoptotic cells at 12.5 nM incubated for 24 hrs by Annexin V/7-Aad staining based flow cytometry (reference value: 1.05 %); format: functional
# A549 [17] = assay: Induction of apoptosis in human A549 cells assessed as late apoptotic cells at 12.5 nM incubated for 24 hrs by Annexin V/7-Aad staining based flow cytometry (reference value: 3.20 %); format: functional
# A549 [18] = assay: Induction of apoptosis in human A549 cells assessed as necrotic cells at 12.5 nM incubated for 24 hrs by Annexin V/7-Aad staining based flow cytometry (reference value: 2.13 %); format: functional
# A549 [19] = assay: Induction of apoptosis in human A549 cells assessed as viable cells at 25 nM incubated for 24 hrs by Annexin V/7-Aad staining based flow cytometry (reference value: 93.63 %); format: functional; details: read-out: Activity
# A549 [20] = assay: Induction of apoptosis in human A549 cells assessed as early apoptotic cells at 25 nM incubated for 24 hrs by Annexin V/7-Aad staining based flow cytometry (reference value: 1.05 %); format: functional
# A549 [21] = assay: Induction of apoptosis in human A549 cells assessed as late apoptotic cells at 25 nM incubated for 24 hrs by Annexin V/7-Aad staining based flow cytometry (reference value: 3.20 %); format: functional
# A549 [22] = assay: Induction of apoptosis in human A549 cells assessed as necrotic cells at 25 nM incubated for 24 hrs by Annexin V/7-Aad staining based flow cytometry (reference value: 2.13 %); format: functional
# A549 [23] = assay: Induction of apoptosis in human A549 cells assessed as viable cells at 50 nM incubated for 24 hrs by Annexin V/7-Aad staining based flow cytometry (reference value: 93.63 %); format: functional; details: read-out: Activity
# A549 [24] = assay: Induction of apoptosis in human A549 cells assessed as early apoptotic cells at 50 nM incubated for 24 hrs by Annexin V/7-Aad staining based flow cytometry (reference value: 1.05 %); format: functional
# A549 [25] = assay: Induction of apoptosis in human A549 cells assessed as late apoptotic cells at 50 nM incubated for 24 hrs by Annexin V/7-Aad staining based flow cytometry (reference value: 3.20 %); format: functional
# A549 [26] = assay: Induction of apoptosis in human A549 cells assessed as necrotic cells at 50 nM incubated for 24 hrs by Annexin V/7-Aad staining based flow cytometry (reference value: 2.13 %); format: functional
# A549 [27] = assay: Inhibition of cell migration in human A549 cells at 12.5 nM incubated for 24 hrs by wound healing assay relative to control; format: functional
# A549 [28] = assay: Inhibition of cell migration in human A549 cells at 25 nM incubated for 24 hrs by wound healing assay relative to control; format: functional
# A549 [29] = assay: Inhibition of cell migration in human A549 cells at 50 nM incubated for 24 hrs by wound healing assay relative to control; format: functional
# A549 [30] = assay: Antitumor activity against human A549 cells xenografted in Balb/c nude mouse assessed as tumor growth inhibition at 25 mg/kg, IG qd for 21 days relative to control; format: functional; details: A549, po, 504 h, time 21 day, read-out: TGI
# [31] = Toxicity in Balb/c nude mouse xenografted with human A549 cells assessed as body weight loss at 25 mg/kg, IG qd for 21 days; format: organism-based; details: in vivo, po, 504 h, time 21 day
# [32] = Toxicity in Balb/c nude mouse xenografted with human A549 cells assessed as damage in liver at 25 mg/kg, IG qd for 21 days by H and E staining based analysis; format: organism-based; details: in vivo, po, 504 h, time 21 day
# [33] = Toxicity in Balb/c nude mouse xenografted with human A549 cells assessed as damage in kidney at 25 mg/kg, IG qd for 21 days by H and E staining based analysis; format: organism-based; details: in vivo, po, 504 h, time 21 day
# [34] = Toxicity in Balb/c nude mouse xenografted with human A549 cells assessed as damage in spleen at 25 mg/kg, IG qd for 21 days by H and E staining based analysis; format: organism-based; details: in vivo, po, 504 h, time 21 day
# A549 [35] = assay: cells; details: Homo sapiens
# Description: Antiproliferative activity against human A549 cells assessed as cell growth inhibition incubated for72 hrs by MTT assay
# Huh-7 = assay: cells; details: Homo sapiens
# Description: Antiproliferative activity against human Huh-7 cells assessed as cell growth inhibition incubated for72 hrs by MTT assay
# T-24 = assay: cells; details: Homo sapiens
# Description: Antiproliferative activity against human T-24 cells assessed as cell growth inhibition incubated for72 hrs by MTT assay
compound,measurement,setting,value
COc1cc(-n2ncc3ccc(-c4ccc(C)nc4)cc32)cc(OC)c1OC.Cl,IC50,A549/TR,33 nM
same,Ratio IC50,[1],1.2
same,solubility,[2],149 µg/mL
same,logP at 8 h,[3],1.8
same,inhibition,Sus scrofa,Dose-Dependent Effect
same,IC50,[4],1750 nM
same,inhibition,Tubulin (Homo sapiens) [5],Dose-Dependent Effect
same,inhibition,Tubulin (Homo sapiens) [6],Dose-Dependent Effect
same,Activity,Tubulin (Homo sapiens) [7],Active
same,Activity,Tubulin (Homo sapiens) [8],Dose-Dependent Effect
same,Activity,A549 [9],68.78%
same,Activity,A549 [10],18.11%
same,Activity,A549 [11],13.1%
same,Activity,A549 [12],3.04%
same,Activity,A549 [13],7.88%
same,Activity,A549 [14],89.07%
same,viability at 0.0125 µM,A549 [15],92.3%
same,Activity,A549 [16],3.02%
same,Activity,A549 [17],3.28%
same,Activity,A549 [18],1.44%
same,viability at 0.025 µM,A549 [19],69.1%
same,Activity,A549 [20],16.41%
same,Activity,A549 [21],12.23%
same,Activity,A549 [22],2.26%
same,viability at 0.05 µM,A549 [23],56.6%
same,Activity,A549 [24],26.53%
same,Activity,A549 [25],15.65%
same,Activity,A549 [26],1.19%
same,inhibition at 0.0125 µM,A549 [27],32.3%
same,inhibition at 0.025 µM,A549 [28],52.2%
same,inhibition at 0.05 µM,A549 [29],83.9%
same,inhibition in vivo at 25 mg/kg,A549 [30],64.1%
same,Activity,[31],Non-Toxic
same,Activity,[32],Non-Toxic
same,Activity,[33],Non-Toxic
same,Activity,[34],Non-Toxic
same,IC50,A549 [35],27 nM
same,IC50,Huh-7,30 nM
same,IC50,T-24,46 nM
